Biological target: HEK cells stably transfected with tetracycline inducible hNR1 and hNR2A (Homo sapiens (Human), UniProt Q05586+Q12879)
Assay: Assay 1: Cell-Based Assay (cytosolic calcium, positive allosteric modulation)
Details: for Emax: HEK293, scaled relative to 100 μM L-glutamate maximal response (100%) and 0 μM L-glutamate (0%), with 30 μM glycine and 300 nM L-glutamate, read-out: Max %; for EC50: with 30 μM glycine and 300 nM L-glutamate (EC30), given for compounds reaching maximal response plateaus
Protocol: Assay 1: Cell-Based Assay
HEK cells stably transfected with tetracycline inducible hNR1 and hNR2A were seeded into clear bottom 384 well poly-D-lysine coated plates (2.5×10^4 cells per well) in Minimum Essential Media (MEM; without L-) including 7.5 μg mL doxycycline and 500 μM (+)-ketamine. The cells were incubated at 37° C. in 5% CO2 for 24 h. For measurement of changes in cytosolic calcium, the seeding media was removed and the cells incubated at 37° C. for 60 min with 1× Becton Dickinson Calcium Assay Kit reagent in Hanks Balanced Salt Solution (HBSS; w/o magnesium, including 1.8 mM calcium, 0.65 mg ml^−1 probenecid and 10 μM (+)-ketamine, pH 7.15) then allowed to equilibrate to rt for 30 min. Concentration-effect curves to Positive Allosteric Modulators (PAMs) were constructed by adding different concentrations (with 30 μM glycine and 300 nM L-glutamate (EC30)) to different wells in HBSS. Compounds were added after a 10 second baseline read and maximum level of relative fluorescence units (RFU) was measured over a 5 min period. Responses were scaled relative to 100 μM L-glutamate maximal response (100%) and 0 μM L-glutamate (0%). EC50 values are provided for compounds reaching maximal response plateaus, and the max % (EC50 (--)) only if no plateau was reached.
A four-parameter Hill equation was fitted to individual concentration-effect curves:
[formula] in which Y, S0, Sinf, AC50, n and c were effect, lower-asymptote, upper-asymptote, mid-point location, slope parameter, and concentration respectively.

Chain of HEK cells stably transfected with tetracycline inducible hNR1 and hNR2A (Q12879 23-1464, other chains not shown): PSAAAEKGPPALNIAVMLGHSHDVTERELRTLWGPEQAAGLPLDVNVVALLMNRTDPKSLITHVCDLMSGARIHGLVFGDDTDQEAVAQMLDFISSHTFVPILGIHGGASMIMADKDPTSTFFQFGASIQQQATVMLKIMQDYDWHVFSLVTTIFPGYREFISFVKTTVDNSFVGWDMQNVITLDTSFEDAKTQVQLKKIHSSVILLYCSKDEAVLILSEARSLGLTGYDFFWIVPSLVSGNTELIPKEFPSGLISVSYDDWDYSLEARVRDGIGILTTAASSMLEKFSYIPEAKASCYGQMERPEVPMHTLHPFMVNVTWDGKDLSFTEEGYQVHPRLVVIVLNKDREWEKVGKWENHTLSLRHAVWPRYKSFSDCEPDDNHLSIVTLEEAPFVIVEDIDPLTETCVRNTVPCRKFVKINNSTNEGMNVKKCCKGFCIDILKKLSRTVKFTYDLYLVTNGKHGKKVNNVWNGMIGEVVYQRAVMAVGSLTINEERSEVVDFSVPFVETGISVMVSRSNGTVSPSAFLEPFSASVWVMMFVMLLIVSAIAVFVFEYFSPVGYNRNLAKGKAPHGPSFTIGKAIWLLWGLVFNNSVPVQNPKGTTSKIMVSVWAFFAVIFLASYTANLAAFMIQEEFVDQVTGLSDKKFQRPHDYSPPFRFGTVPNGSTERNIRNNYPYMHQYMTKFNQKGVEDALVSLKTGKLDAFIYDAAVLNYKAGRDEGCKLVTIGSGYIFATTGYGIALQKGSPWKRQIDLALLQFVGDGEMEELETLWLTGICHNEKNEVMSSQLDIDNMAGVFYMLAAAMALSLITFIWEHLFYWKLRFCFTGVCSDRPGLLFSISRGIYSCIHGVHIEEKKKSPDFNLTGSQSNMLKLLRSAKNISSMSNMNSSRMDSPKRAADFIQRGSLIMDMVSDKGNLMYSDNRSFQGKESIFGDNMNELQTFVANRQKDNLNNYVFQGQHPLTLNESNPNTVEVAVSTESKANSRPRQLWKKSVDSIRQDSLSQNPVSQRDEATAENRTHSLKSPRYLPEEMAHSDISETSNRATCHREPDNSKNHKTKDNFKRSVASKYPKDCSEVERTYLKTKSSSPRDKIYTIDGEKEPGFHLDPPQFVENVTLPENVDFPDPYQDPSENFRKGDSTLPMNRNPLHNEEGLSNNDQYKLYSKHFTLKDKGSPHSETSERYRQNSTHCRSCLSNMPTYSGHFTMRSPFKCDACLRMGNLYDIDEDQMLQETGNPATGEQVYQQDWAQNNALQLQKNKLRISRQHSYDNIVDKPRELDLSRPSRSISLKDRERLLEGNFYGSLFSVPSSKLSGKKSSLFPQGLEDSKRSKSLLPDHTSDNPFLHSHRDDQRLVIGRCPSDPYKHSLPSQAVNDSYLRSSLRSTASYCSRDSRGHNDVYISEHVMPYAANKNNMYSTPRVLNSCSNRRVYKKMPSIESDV

SMILES	Emax [%]	EC50 [µM]
Cc1ccc2nc(CN(C)c3ccccc3)cc(=O)n2c1 [Compound 2, 7-methyl-2-[(N-methylanilino)methyl]pyrido[1,2-a]pyrimidin-4-one]	75	–
CCN(Cc1cc(=O)n2cc(C)ccc2n1)c1ccccc1 [Compound 3, 2-[(N-ethylanilino)methyl]-7-methyl-pyrido[1,2-a]pyrimidin-4-one]	122	11.1
CCN(Cc1cc(=O)n2cc(C)ccc2n1)c1ccc(F)cc1 [Compound 4, 2-[(N-ethyl-4-fluoro-anilino)methyl]-7-methyl-pyrido[1,2-a]pyrimidin-4-one]	134	5.2
CCc1cccc2nc(CN(CC)c3ccc(F)cc3)cc(=O)n12 [Compound 5, 6-ethyl-2-[(N-ethyl-4-fluoro-anilino)methyl]pyrido[1,2-a]pyrimidin-4-one]	134	6.4
CCc1cccc2nc(CN(CC)c3ccccc3)cc(=O)n12 [Compound 6, 6-ethyl-2-[(N-ethylanilino)methyl]pyrido[1,2-a]pyrimidin-4-one]	138	11.5
CCN(Cc1cc(=O)n2c(C)cccc2n1)c1ccc(F)cc1 [Compound 7, 2-[(N-ethyl-4-fluoro-anilino)methyl]-6-methyl-pyrido[1,2-a]pyrimidin-4-one]	111	13.6
CCN(Cc1cc(=O)n2c(OC)cccc2n1)c1ccc(F)cc1 [Compound 8, 2-[(N-ethyl-fluoro-anilino)methyl]-6-methoxy-pyrido[1,2-a]pyrimidin-4-one]	117	–
CCOc1cccc2nc(CN(CC)c3ccc(F)cc3)cc(=O)n12 [Compound 9, 6-ethoxy-2-[(N-ethyl-4-fluoro-anilino)methyl]pyrido[1,2-a]pyrimidin-4-one]	120	5
CCN(Cc1cc(=O)n2c(OC)c(C)ccc2n1)c1ccc(F)cc1 [Compound 10, 2-[(N-ethyl-4-fluoro-anilino)methyl]-6-methoxy-7-methyl-pyrido[1,2-a]pyrimidin-4-one]	51	–
CCOc1c(C)ccc2nc(CN(CC)c3ccc(F)cc3)cc(=O)n12 [Compound 11, 6-ethoxy-2-[(N-ethyl-4-fluoro-anilino)methyl]-7-methyl-pyrido[1,2-a]pyrimidin-4-one]	53	–
CCN(Cc1cc(=O)n2c(-c3cncnc3)cccc2n1)c1ccc(F)cc1 [Compound 12, 2-[(N-ethyl-4-fluoro-anilino)methyl]-6-pyrimidin-5-yl-pyrido[1,2-a]pyrimidin-4-one]	161	6.4
CCN(Cc1cc(=O)n2c(-c3ccco3)cccc2n1)c1ccc(F)cc1 [Compound 13, 2-[(N-ethyl-4-fluoro-anilino)methyl]-6-(2-furyl)pyrido[1,2-a]pyrimidin-4-one]	172	0.371
CCN(Cc1cc(=O)n2c(C#N)cccc2n1)c1ccc(F)cc1 [Compound 14, 2-[(N-ethyl-4-fluoro-anilino)methyl]-4-oxo-pyrido[1,2-a]pyrimidine-6-carbonitrile]	163	5.8
CCN(Cc1cc(=O)n2c(Br)cccc2n1)c1ccc(F)cc1 [Compound 15, 6-bromo-2-[(N-ethyl-4-fluoro-anilino)methyl]pyrido[1,2-a]pyrimidin-4-one]	159	6.2
CCNC(=O)c1c(C)ccc2nc(Cc3cccc(C#N)c3F)cc(=O)n12 [Compound 19, 2-[(3-cyano-2-fluoro-phenyl)methyl]-N-ethyl-7-methyl-4-oxo-pyrido[1,2-a]pyrimidine-6-carboxamide]	65	–
CCNC(=O)c1cccc2nc(Cc3cccc(C#N)c3F)cc(=O)n12 [Compound 21, 2-[(3-cyano-2-fluoro-phenyl)methyl]-N-ethyl-4-oxo-pyrido[1,2-a]pyrimidine-6-carboxamide]	43	–
CNC(=O)c1c(C)ccc2nc(Cc3cccc(Cl)c3F)cc(=O)n12 [Compound 23, 2-[(3-chloro-2-fluoro-phenyl)methyl]-N,7-dimethyl-4-oxo-pyrido[1,2-a]pyrimidine-6-carboxamide]	59	–
CNC(=O)c1c(C)ccc2nc(Cc3cccc(C#N)c3F)cc(=O)n12 [Compound 25, 2-[(3-cyano-2-fluoro-phenyl)methyl]-N,7-dimethyl-4-oxo-pyrido[1,2-a]pyrimidine-6-carboxamide]	51	–
CNC(=O)c1c(C)ccc2nc(Cc3cccc(C#N)c3F)c(F)c(=O)n12 [Compound 26, 2-[(3-cyano-2-fluoro-phenyl)methyl]-3-fluoro-N,7-dimethyl-4-oxo-pyrido[1,2-a]pyrimidine-6-carboxamide]	34	–
CCN(Cc1cc(=O)n2c(C(=O)NC)c(C)ccc2n1)c1ccc(F)cc1 [Compound 27, 2-[(N-ethyl-4-fluoro-anilino)methyl]-N,7-dimethyl-4-oxo-pyrido[1,2-a]pyrimidine-6-carboxamide]	162	2.7
CNC(=O)c1c(C)ccc2nc(Cc3cccc(Cl)c3F)c(F)c(=O)n12 [Compound 31, 2-[(3-chloro-2-fluoro-phenyl)methyl]-3-fluoro-N,7-dimethyl-4-oxo-pyrido[1,2-a]pyrimidine-6-carboxamide]	48	–

Next, values leading:

Emax [%]	EC50 [µM]	SMILES
159	3.6	CCNC(=O)c1c(C)ccc2nc(COc3ccc(F)cc3)cc(=O)n12 [Compound 16, N-ethyl-2-[(4-fluorophenoxy)methyl]-7-methyl-4-oxo-pyrido[1,2-a]pyrimidine-6-carboxamide]
148	4	CCNC(=O)c1c(C)ccc2nc(Cn3nc(C(F)(F)F)cc3C3CC3)cc(=O)n12 [Compound 17, 2-[[5-cyclopropyl-3-(trifluoromethyl)pyrazol-1-yl]methyl]-N-ethyl-7-methyl-4-oxo-pyrido[1,2-a]pyrimidine-6-carboxamide]
122	16.2	CCNC(=O)c1c(C)ccc2nc(Cn3nc(C4CC4)cc3C(F)(F)F)cc(=O)n12 [Compound 18, 2-[[3-cyclopropyl-5-(trifluoromethyl)pyrazol-1-yl]methyl]-N-ethyl-7-methyl-4-oxo-pyrido[1,2-a]pyrimidine-6-carboxamide]
116	7.4	CCNC(=O)c1cccc2nc(Cn3nc(C(F)(F)F)cc3C3CC3)cc(=O)n12 [Compound 20, 2-[[5-cyclopropyl-3-(trifluoromethyl)pyrazol-1-yl]methyl]-N-ethyl-4-oxo-pyrido[1,2-a]pyrimidine-6-carboxamide]
69	–	CNC(=O)c1c(C)ccc2nc(Cc3cccc(C(F)(F)F)c3F)cc(=O)n12 [Compound 22, 2-[[2-fluoro-3-(trifluoromethyl)phenyl]methyl]-N,7-dimethyl-4-oxo-pyrido[1,2-a]pyrimidine-6-carboxamide]
67	–	CNC(=O)c1c(C)ccc2nc(Cc3cccc(C4CC4)c3F)cc(=O)n12 [Compound 24, 2-[(3-cyclopropyl-2-fluoro-phenyl)methyl]-N,7-dimethyl-4-oxo-pyrido[1,2-a]pyrimidine-6-carboxamide]
60	–	CCNC(=O)c1c(C)ccc2nc(Cn3ccc(C(F)(F)F)n3)cc(=O)n12 [Compound 28, N-ethyl-7-methyl-4-oxo-2-[[3-(trifluoromethyl)pyrazol-1-yl)methyl]pyrido[1,2-a]pyrimidine-6-carboxamide]
147	5.9	CNC(=O)c1c(C)ccc2nc(Cn3nc(C(F)(F)F)cc3C3CC3)cc(=O)n12 [Compound 29, 2-[[5-cyclopropyl-3-(trifluoromethyl)pyrazol-1-yl]methyl]-N,7-dimethyl-4-oxo-pyrido[1,2-a]pyrimidine-6-carboxamide]
101	–	CNC(=O)c1c(C)ccc2nc(Cn3nc(C4CC4)cc3C(F)(F)F)cc(=O)n12 [Compound 30, 2-[[3-cyclopropyl-5-(trifluoromethyl)pyrazol-1-yl]methyl]-N,7-dimethyl-4-oxo-pyrido[1,2-a]pyrimidine-6-carboxamide]
136	–	CCNC(=O)c1cc(C)cc2nc(Cn3nc(C(F)(F)F)cc3C3CC3)cc(=O)n12 [Compound 32]
198	–	Cc1ccc2nc(Cn3nc(C(F)(F)F)cc3C3CC3)cc(=O)n2c1C(=O)NCC(F)(F)F [Compound 33, 2-[[5-cyclopropyl-3-(trifluoromethyl)pyrazol-1-yl]methyl]-7-methyl-4-oxo-N-(2,2,2-trifluoroethyl)pyrido[1,2-a]pyrimidine-6-carboxamide]
99	25.5	Cc1ccc2nc(Cn3nc(C(F)(F)F)cc3Cl)cc(=O)n2c1[C@H]1C[C@@H]1C#N [Compound 34, (1S,2S)-2-[2-[[5-chloro-3-(trifluoromethyl)pyrazol-1-yl]methyl]-7-methyl-4-oxo-pyrido[1,2-a]pyrimidin-6-yl]cyclopropanecarbonitrile]
132	0.077	Cc1ccc2nc(Cn3nc(C(F)(F)F)cc3Cl)cc(=O)n2c1[C@@H]1C[C@H]1C#N [Compound 35, (1R,2R)-2-[2-[[5-chloro-3-(trifluoromethyl)pyrazol-1-yl]methyl]-7-methyl-4-oxo-pyrido[1,2-a]pyrimidin-6-yl]cyclopropanecarbonitrile]

From patent publication US10280165B2, “Pyridopyrimidinones and methods of use thereof” (Genentech, Inc., priority 2015, dated 2019)
